{"source": "paper PMC11087982", "about": "“In vitro and in vivo activities of a trithiolato-diRuthenium complex conjugated with sulfadoxine against the apicomplexan parasite Toxoplasma gondii” (International Journal for Parasitology: Drugs and Drug …, 2024)", "key": {"Non-infected HFF": {"test_system": "Non-infected HFF", "assay": "TMRE uptake assay (mitochondrial membrane potential), non-infected HFF", "format": "cell-based, human", "settings": "0.5 μM, 3.5 h", "protocol": "(§1) 5 × 10^5 HFF were seeded into T25 culture flasks in DMEM complete medium and maintained in culture for 72 h to reach ⁓80% confluency. HFF monolayers were left either non-infected or were infected with 2 × 10^5 T. gondii Me49 tachyzoites. After another 48 h, the medium was removed from infected and non-infected T25 flasks and was replaced either by medium containing 0.5 μM RU-SDX, or in the case of non-treated controls, medium containing 0.05% DMSO. As positive controls, the two mitochondrial uncouplers FCCP and CCCP were applied at a concentration of 80 and 50 μM, respectively. PYR was applied at 0.5 μM as a control drug not affecting the MMP, and RU-adenine, used as a conjugate shown earlier to impact on the mitochondrial ultrastructure in T. gondii ([Anghel et al., 2021]; [Desiatkina et al., 2022b]), was also tested at 0.5 μM ([Anghel et al., 2021]; [Desiatkina et al., 2022b]). […] Fluorescence was measured using a Hidex Sense microplate reader instrument ([…]) with the excitation wavelength 544/20 nm and emitted light collected at 590/20 nm. Value from wells belonging to the same experimental condition were summed and the mean TMRE uptake in each condition was calculated from three biological replicates."}, "T. gondii-infected HFF": {"test_system": "T. gondii-infected HFF", "assay": "TMRE uptake assay (mitochondrial membrane potential), T. gondii-infected HFF", "format": "cell-based, Toxoplasma gondii Me49 in human HFF", "settings": "0.5 μM, 3.5 h", "protocol": "as §1"}, "[1]": {"test_system": "T. gondii β-gal tachyzoites", "settings": "2021, cited from earlier work"}, "[2]": {"test_system": "T. gondii β-gal tachyzoites", "assay": "T. gondii β-Gal tachyzoite proliferation in HFF monolayers (β-galactosidase fluorometric assay)", "format": "cell-based, Toxoplasma gondii", "protocol": "Effects of drugs on the proliferative capacity of T. gondii tachyzoites were investigated using a transgenic T. gondii RH strain constitutively expressing β-Galactosidase (T. gondii β-Gal ([Dc et al., 1997]);). Assays were carried out in 96 well plates in the presence or absence of the different compounds. For the quantification of β-Galactosidase activity, a fluorometric assay was applied as previously described ([Desiatkina et al., 2021]; [Păunescu et al., 2021])."}, "HFF": {"test_system": "HFF", "assay": "HFF host cell cytotoxicity, Alamar blue viability assay", "format": "cell-based, human", "settings": "72 h, uninfected HFF", "protocol": "(§2) To determine cytotoxicity of compounds on host cells, HFF were grown to confluency in 96 well plates and were treated with different concentrations of the drugs solubilized in medium during 72 h at 37 °C/5% CO2, or were treated with the corresponding concentration of DMSO only ([Desiatkina et al., 2020]; [Holzer et al., 2023]; [Păunescu et al., 2021]). The Alamar blue viability assay was used as previously described ([Desiatkina et al., 2020], [2021], [2022a], [2022b]; [Holzer et al., 2023]; [Păunescu et al., 2021]). In short, resazurin was added to each well at 0.01 mg/ml, and subsequently fluorescence of the produced resorufin was measured at excitation wavelength 544/20 nm and emission wavelength 590/20 nm using a Hidex Sense microplate reader (Hidex, Turku, Finland)."}, "[3]": {"assay": "HFF host cell cytotoxicity, Alamar blue viability assay", "format": "cell-based, human", "settings": "human, uninfected HFF cells (confluent monolayer), read-out: viability (% of control ± SD)", "protocol": "as §2"}}, "note": "Read-outs that look alike come from different tables or passages of the source."}
{"smiles": "CCc1nc(N)nc(N)c1-c1ccc(Cl)cc1", "note": "[PYR, Pyrimethamine, reference compound]", "values": [{"measurement": "TMRE fluorescence intensity / TMRE uptake (percentage of non-treated control = 100%)", "setting": "Non-infected HFF", "result": 99, "unit": "%"}, {"measurement": "TMRE fluorescence intensity / TMRE uptake (percentage of non-treated control = 100%)", "setting": "T. gondii-infected HFF", "result": 106, "unit": "%"}]}
{"smiles": "CC(C)(C)c1ccc(C[S-])cc1.CC(C)(C)c1ccc(C[S-])cc1.Cc1ccc(C(C)C)cc1.Cc1ccc(C(C)C)cc1.O=C(O)Cc1ccc([S-])cc1.[Cl-].[Ru+2].[Ru+2]", "note": "[RU]", "values": [{"measurement": "proliferation (% of control ± SD)", "setting": "[1]; 1 μM, ref Păunescu et al.", "result": "^a110 ± 2%"}, {"measurement": "proliferation (% of control ± SD)", "setting": "[1]; 1.1 μM, ref Păunescu et al.", "result": "^a114 ± 2%"}, {"measurement": "proliferation (% of control ± SD)", "setting": "[2]; 1.25 μM", "result": "^∗64 ± 10%"}, {"measurement": "proliferation (% of control ± SD)", "setting": "[2]; 2.5 μM", "result": "^∗∗∗12 ± 2%"}, {"measurement": "proliferation (% of control ± SD)", "setting": "[2]; 5 μM", "result": "^∗∗∗0 ± 0%"}, {"measurement": "viability (% of control ± SD)", "setting": "HFF; 2.5 μM", "result": "100 ± 10", "unit": "%"}, {"measurement": "viability (% of control ± SD)", "setting": "HFF; 5 μM", "result": "70 ± 10", "unit": "%"}, {"measurement": "viability (% of control ± SD)", "setting": "HFF; 10 μM", "result": "0 ± 0", "unit": "%"}]}
{"smiles": "COc1ncnc(NS(=O)(=O)c2ccc(N)cc2)c1OC", "note": "[SDX, Sulfadoxine]", "values": [{"measurement": "proliferation (% of control ± SD)", "setting": "[1]; 1 μM, ref Desiatkina et al.", "result": "^b83 ± 2%"}, {"measurement": "proliferation (% of control ± SD)", "setting": "[1]; 1.1 μM, ref Desiatkina et al.", "result": "^b^, ^∗111 ± 3%"}, {"measurement": "activity at 1.25 µM", "setting": "[2]; Toxoplasma gondii, 1.25 μM, read-out: proliferation (% of control ± SD)", "result": 127, "unit": "%"}, {"measurement": "activity at 2.5 µM", "setting": "[2]; Toxoplasma gondii, 2.5 μM, read-out: proliferation (% of control ± SD)", "result": 113, "unit": "%"}, {"measurement": "activity at 5 µM", "setting": "[2]; Toxoplasma gondii, 5 μM, read-out: proliferation (% of control ± SD)", "result": 112, "unit": "%"}, {"measurement": "viability at 72 h, 2.5 µM", "setting": "[3]; 2.5 μM", "result": "118 ± 6", "unit": "%"}, {"measurement": "viability at 72 h, 5 µM", "setting": "[3]; 5 μM", "result": "106 ± 9", "unit": "%"}, {"measurement": "viability at 72 h, 10 µM", "setting": "[3]; 10 μM", "result": "93 ± 5", "unit": "%"}]}
